According to ChEMBL document CHEMBL6127065, “Design and Synthesis of c-Met and HDAC Dual Inhibitors for the Treatment of Breast Cancer” (ACS Med Chem Lett, 2024):

Legend:
MDA-MB-468 = assay: Antiproliferative activity against human MDA-MB-468 cells assessed as reduction in cell growth incubated for 72 hrs by MTT assay; settings: MDA-MB-468, 72 h
MDA-MB-231 = assay: Antiproliferative activity against human MDA-MB-231 cells assessed as reduction in cell growth incubated for 72 hrs by MTT assay; settings: MDA-MB-231, 72 h
MDA-MB-453 = assay: Antiproliferative activity against human MDA-MB-453 cells assessed as reduction in cell growth incubated for 72 hrs by MTT assay; settings: MDA-MB-453, 72 h
[1] = target: Hepatocyte growth factor receptor (Homo sapiens, UniProt P08581); assay: Inhibition of c-Met (unknown origin) using Poly(Glu:Tyr)(4:1) and ATP as substrate incubated for 45 mins by Kinase-Glo Max reagent based luminescence analysis
Hepatocyte growth factor receptor, sequence (P08581 whole entry): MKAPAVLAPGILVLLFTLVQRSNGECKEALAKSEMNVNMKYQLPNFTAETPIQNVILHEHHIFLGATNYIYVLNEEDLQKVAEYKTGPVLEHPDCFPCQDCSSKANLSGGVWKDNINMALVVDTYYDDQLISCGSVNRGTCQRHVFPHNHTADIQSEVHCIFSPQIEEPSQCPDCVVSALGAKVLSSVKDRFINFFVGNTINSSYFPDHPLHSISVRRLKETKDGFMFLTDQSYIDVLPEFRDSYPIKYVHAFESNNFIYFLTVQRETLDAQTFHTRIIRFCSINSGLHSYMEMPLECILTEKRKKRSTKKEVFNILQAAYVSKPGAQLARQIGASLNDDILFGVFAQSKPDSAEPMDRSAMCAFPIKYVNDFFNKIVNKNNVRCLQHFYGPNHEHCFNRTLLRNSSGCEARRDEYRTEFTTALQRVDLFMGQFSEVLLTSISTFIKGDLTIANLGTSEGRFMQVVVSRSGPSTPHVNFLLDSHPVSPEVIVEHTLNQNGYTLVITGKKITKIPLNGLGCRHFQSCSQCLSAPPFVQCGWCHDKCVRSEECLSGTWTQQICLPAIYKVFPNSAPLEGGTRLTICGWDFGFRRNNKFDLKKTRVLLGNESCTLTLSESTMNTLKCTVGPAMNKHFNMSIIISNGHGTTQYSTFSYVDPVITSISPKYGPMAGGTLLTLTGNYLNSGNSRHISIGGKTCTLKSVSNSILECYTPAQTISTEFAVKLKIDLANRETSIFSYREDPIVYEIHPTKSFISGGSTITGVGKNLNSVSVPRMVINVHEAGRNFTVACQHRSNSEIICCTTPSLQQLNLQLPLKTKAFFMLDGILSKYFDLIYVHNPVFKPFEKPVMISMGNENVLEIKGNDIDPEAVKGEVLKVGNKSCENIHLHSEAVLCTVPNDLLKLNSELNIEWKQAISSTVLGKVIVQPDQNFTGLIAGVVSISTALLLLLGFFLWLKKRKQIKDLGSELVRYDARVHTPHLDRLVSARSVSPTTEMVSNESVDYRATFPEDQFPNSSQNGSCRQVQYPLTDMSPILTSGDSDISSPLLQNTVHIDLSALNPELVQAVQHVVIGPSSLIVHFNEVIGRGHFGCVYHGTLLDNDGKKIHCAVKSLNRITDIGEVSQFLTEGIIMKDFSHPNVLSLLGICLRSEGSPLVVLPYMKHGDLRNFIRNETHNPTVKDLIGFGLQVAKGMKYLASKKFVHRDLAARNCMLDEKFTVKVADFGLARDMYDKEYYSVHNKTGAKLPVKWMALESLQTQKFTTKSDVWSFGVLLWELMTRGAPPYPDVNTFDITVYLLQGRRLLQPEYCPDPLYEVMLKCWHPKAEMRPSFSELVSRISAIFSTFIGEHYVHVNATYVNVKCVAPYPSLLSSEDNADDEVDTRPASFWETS

SMILES	IC50 (MDA-MB-468) [µM]	IC50 (MDA-MB-231) [µM]	IC50 (MDA-MB-453) [µM]	IC50 [1] [µM]
CC(c1ccc2ncccc2c1)n1nnc2ncc(N3CCN(CC(=O)Nc4ccccc4N)CC3)nc21 (centres undefined)	14.2	26.6	27.2	
C[C@@H](c1ccc2nccn2c1)n1nnc2ncc(-c3cnn(C)c3)nc21 [SAVOLITINIB]				0.00142
CC(c1ccc2ncccc2c1)n1nnc2ncc(N3CCN(CC(=O)Nc4ccc(F)cc4N)CC3)nc21 (centres undefined)	12.2	18.4	22.1	
CC(c1ccc2ncccc2c1)n1nnc2ncc(N3CCN(CCCC(=O)Nc4ccc(F)cc4N)CC3)nc21 (centres undefined)	12.1	26.6	31.1	
CC(c1ccc2ncccc2c1)n1nnc2ncc(N3CCN(Cc4ccc(CC(=O)Nc5ccc(F)cc5N)cc4)CC3)nc21 (centres undefined)	3.92	6.46	5.91	

Further compounds by falling IC50 (MDA-MB-468), results first:

IC50 (MDA-MB-468) [µM]	IC50 (MDA-MB-231) [µM]	IC50 (MDA-MB-453) [µM]	IC50 [1] [µM]	SMILES
12.8	15.3	16		CC(c1ccc2ncccc2c1)n1nnc2ncc(N3CCN(Cc4ccc(C(=O)Nc5ccccc5N)cc4)CC3)nc21 (centres undefined)
6.35	8.64	8.94		CC(c1ccc2ncccc2c1)n1nnc2ncc(N3CCN(Cc4ccc(CC(=O)Nc5ccccc5N)cc4)CC3)nc21 (centres undefined)
